Results as given in patent publication US10342796B2, “Acrylanilide derivative, preparation method, and applications thereof in pharmacy” (Ancureall Pharmaceutical (Shanghai) Co., Ltd., priority 2015, dated 2019).
Read-outs that look alike come from different tables or passages of the source.

Experiments:
Assay in all cases: Growth inhibition GI50 in vitro (CCK8/MTT, 72 h)
Assay type in all cases: cell-based
[1] = tested on: NCI-H1781 (HER2 exon 20 G776VC mutation); conditions: Homo sapiens
[2] = tested on: Karpas-299 (NPM-ALK); conditions: Homo sapiens, Karpas-299, EGFR wt
[3] = tested on: SH-SY5Y (ALK F1174L); conditions: Homo sapiens, EGFR wt
Description: Neuroblastoma cell line SH-SY5Y (ALK F1174L positive) (Shanghai Cell Bank of Chinese Academy of Sciences) was cultured with MEM complete medium (supplement with 10% FBS, 1% NEAA, 1% double-antibiotics and 1 mM of sodium pyruvate).
(§1) The suspension cells were collected by centrifugation. The supernatant was discard and the cell pellet was resuspended and counted. Different cell concentrations (5˜10×10^4 cells/mL) were prepared according to the growth cycle of each cell line and then seeded on a 96-well plate (Corning), 100 μL/well. The cells were incubated over night at 37° C., 5% CO2. The compounds were added to the cells on the second day with 2 wells in parallel. The final concentration of organic solvent shall not exceed 1%. The cells were continually incubated for 72 h, and then subjected to MTT assay.
(§2) The present compounds and the reference compounds were dissolved with DMSO (Sigma), respectively. […] The storage concentration of compounds was 10 mM and kept at −20° C. They were diluted by 2 times or 10 times with serial dilution before using.
(§3) Dojindo CCK8 reagent kit was used as MTT assay. […] FC meter was used as microplate reader.
(§4) Adherent cell culture medium was discard and immediately replaced with fresh prepared medium which contains 10% CCK8 reagent (100 μL/well). For the suspension cells, CCK8 was directly added to 10% of the final concentration. The cells were continually incubated for 1˜4 h. When the color of control wells turned to dark yellow, the absorption value was measured at OD450 nm. The cell growth rate was calculated according to the following formula: cell growth rate (%)=100*(T−T0)/(C−T0), T=optical density of drug treatment cell well—optical density of blank control well; T0=optical density of cell well before drug treatment—optical density of blank control well; C=optical density of cell well of solvent control group—optical density of blank control well. […] The experiment was independently repeated 1˜3 times, and subject to biological statistical analysis.
(§5) Growth inhibition assay was conducted in the cell lines shown Table 14 with the different oncogene mutations. Each compound started at 1000 nM as an initial concentration and was diluted by 2 times with serial dilution to 0.03 nM.

[4] = tested on: HCC1954 (Her2 amp); conditions: Homo sapiens, HCC1954, EGFR wt
[5] = tested on: H2170 (Her2 amp); conditions: Homo sapiens, NCI-H2170, H2170, EGFR wt
[6] = tested on: ZR-75-30 (Her2 amp); conditions: Homo sapiens, ZR-75-30, EGFR wt
[7] = tested on: SNU-16 (FGFR2 amp); conditions: Homo sapiens, SNU-16, EGFR wt
Description: (§6) Human NSCLC cell line NCI-H1581(ATCC) contains FGFR1 gene amplification and high expression. Human gastric cancer cell line SNU-16(ATCC) contains FGFR2 gene amplification and high expression. They were cultured with 1×RPMI1640 complete medium (10% FBS), respectively.
as §1, §2, §3, §4, §5

[8] = tested on: H1581 (FGFR1 amp); conditions: Homo sapiens, NCI-H1581, H1581, EGFR wt
Description: as §6, §1, §2, §3, §4, §5

[9] = NCI-H1781, Table 16, 1000 nM to 0.03 nM serial dilution, read-out: GI50 H1781 (HER2 G776VC)

SMILES | GI50 ([1]; NCI-H1781, read-out: GI50 H1781 (HER2 G776VC)) | GI50 [2] | GI50 [3] | GI50 [4] | GI50 [5] | GI50 [6] | GI50 [7] | GI50 [8] | GI50 [1, 9]
C=CC(=O)Nc1cc(Nc2nccc(-c3cn(C)c4ccccc34)n2)c(OC)cc1N(C)CCN(C)C [AZD9291, reference compound] | 195 nM | > 1000 nM | > 1000 nM | > 1000 nM | 117 nM | 31 nM | > 1000 nM | > 1000 nM | 
C=CC(=O)Nc1cc(Nc2nccc(Nc3cccc(Cl)c3)n2)c(OC)cc1N(C)CCN(C)C [Compound 2, N-(5-(4-(3-chloro-phenylamino)-pyrimidin-2-ylamino)-2-(2-(dimethylamino-ethyl)-methyl-amino)-4-methoxyl-phenyl)-acrylamide] |  | 500 nM | > 1000 nM | 375 nM | 12.6 nM | 6 nM | > 1000 nM | > 1000 nM | 
C=CC(=O)Nc1cc(Nc2nccc(Nc3ccc(OCc4ccccn4)c(Cl)c3)n2)c(OC)cc1N(C)CCN(C)C [Compound 18, N-(5-(4-(3-chloro-4-(pyridin-2-methoxyl)phenylamino)pyrimidin-2-ylamino)-2-((2-(dimethylamino)ethyl)(methyl)amino)-4-methoxyl-phenyl)-acrylamide] |  | > 1000 nM | > 1000 nM | 312 nM | 19.5 nM | 2.1 nM | > 1000 nM | > 1000 nM | 
C=CC(=O)Nc1cc(Nc2ncc(Cl)c(Nc3ccc(OCc4ccccn4)c(Cl)c3)n2)c(OC)cc1N(C)CCN(C)C [Compound 19, N-(5-(5-chloro-4-(3-chloro-4-(pyridin-2-methoxyl)phenylamino)-pyrimidin-2-ylamino)-2-((2-(dimethylamino)ethyl)(methyl)amino)-4-methoxyl-phenyl)-acrylamide] |  | 500 nM | > 1000 nM | 312 nM | 14.6 nM | 2.1 nM | > 1000 nM | > 1000 nM | 
C=CC(=O)Nc1cc(Nc2nccc(-n3ccc4c(OC)cccc43)n2)c(OC)cc1N(C)CCN(C)C [Compound 99, N-(5-(4-(4-methoxyl-1H-indol-1-yl)-pyrimidin-2-ylamino)-2-(2-(dimethylamino-ethyl)-methyl-amino)-4-methoxyl-phenyl)-acrylamide] |  |  |  |  |  |  |  |  | 1.92 nM
C=CC(=O)Nc1cc(Nc2nccc(-n3cnc4ccccc43)n2)c(OC)cc1N(C)CCN(C)C [Compound 106] |  | > 1000 nM | > 1000 nM | 375 nM | 9.4 nM | 12 nM | > 1000 nM | > 1000 nM | 
C=CC(=O)Nc1cc(Nc2ncnc(Nc3cccc(F)c3)n2)c(OC)cc1N(C)CCN(C)C [Compound 114, N-(5-(4-(3-fluoro-phenylamino)-[1,3,5]triazin-2-ylamino)-2-((2-dimethylamino-ethyl)-methyl-amino)-4-methoxyl-phenyl)-acrylamide] |  | > 1000 nM | > 1000 nM | 37.5 nM | 4.8 nM | 1.1 nM | > 1000 nM | > 1000 nM | 
C=CC(=O)Nc1cc(Nc2ncnc(Nc3cccc(Br)c3)n2)c(OC)cc1N1CCC(N2CCCC2)CC1 [Compound 118] |  | 500 nM |  | 37.5 nM | 6.8 nM | 2.6 nM | > 1000 nM | > 1000 nM | 
C=CC(=O)Nc1cc(Nc2cc(Nc3cc(OC)c(Cl)cc3Cl)ncn2)c(OC)cc1N(C)CCN(C)C [Compound 136, N-(5-(6-(2,4-dichloro-5-methoxyl-phenylamino)-pyrimidin-4-ylamino)-2-((2-dimethylamino-ethyl)-methyl-amino)-4-methoxyl-phenyl)-acrylamide] |  |  |  |  |  |  |  |  | 7.32 nM
C=CC(=O)Nc1cc(Nc2cc(Nc3ccc(F)c(Cl)c3)ncn2)c(OC)cc1N(C)CCN(C)C [Compound 140, N-(5-(6-(3-chloro-4-fluoro-phenylamino)-pyrimidin-4-ylamino)-2-((2-dimethylamino-ethyl)-methyl-amino)-4-methoxyl-phenyl)-acrylamide] |  | > 1000 nM | > 1000 nM | 26.5 nM | 4.8 nM | 1.5 nM | > 1000 nM | > 1000 nM | 
C=CC(=O)Nc1cc(Nc2cc(Nc3ccc(F)c(Cl)c3)ncn2)c(OC)cc1N1CCN(C2CCN(C)CC2)CC1 [Compound 147, N-(5-(6-(3-chloro-4-fluoro-phenylamino)-pyrimidin-4-ylamino)-4-methoxyl-2-(4-(1-methylpiperidin-4-yl)-piperazin-1-yl)-phenyl)-acrylamide] |  | > 1000 nM | > 1000 nM | 26.5 nM | 4.8 nM | 1.5 nM | > 1000 nM | > 1000 nM | 
C=CC(=O)Nc1cc(Nc2cc(-c3cn(C(C)C)c4ccccc34)ncn2)c(OC)cc1N(C)CCN(C)C [Compound 183] |  | > 1000 nM | > 1000 nM | 156 nM | 12.5 nM | 6 nM | > 1000 nM | > 1000 nM | 
C=CC(=O)Nc1cc(Nc2nccc(-n3ccc4c(OCCOC)cccc43)n2)c(OC)cc1N(C)CCN(C)C [Compound 205, N-(5-(4-(4-(2-methoxyl-ethoxyl)-1H-indol-1-yl)-pyrimidin-2-ylamino)-2-(2-(dimethylamino-ethyl)-methyl-amino)-4-methoxyl-phenyl)-acrylamide] |  |  |  |  |  |  |  |  | 1.52 nM
C=CC(=O)Nc1cc(Nc2cc(Nc3ccc(OCC4CCOCC4)c(Cl)c3)ncn2)c(OC)cc1N(C)CCN(C)C [Compound 216, N-(5-(6-(3-chloro-4-(tetrahydropyran-4-yl-methoxyl)-phenylamino)-pyrimidin-4-ylamino)-2-((2-dimethylaminoethyl)-methyl-amino)-4-methoxyphenyl)-acrylamide] |  |  |  |  |  |  |  |  | 19.5 nM
C=CC(=O)Nc1cc(Nc2cc(Nc3cc(F)c(OC)c(Cl)c3)ncn2)c(OC)cc1N(C)CCN(C)C [Compound 236, N-(5-(6-(3-chloro-5-fluoro-4-methoxyphenylamino)-pyrimidin-4-yl-amino)-2-((2-dimethylamino-ethyl)-methyl-amino)-4-methoxyl-phenyl)-acrylamide] |  |  |  |  |  |  |  |  | 0.96 nM
